Reference: patent publication US10513534B2, “2′-chloro nucleoside analogs for HCV infection” (priority 2012, dated 2019)

Experiments:
[1] = Liver triphosphate pharmacokinetics after single oral dose in cynomolgus monkeys; format: in vivo; settings: 6 hours post dose, 10 mg/kg oral, normalized to 1 μmol/kg dose
Method: For each compound, a single oral dose at 10 mg/kg in PEG 200 (dose volume 3 mL/kg) was administered to cynomolgus monkeys. Untreated animals were used for the collection of control liver. Plasma samples were collected at 0.5, 1, 2, 4, 6, 8, 12 and 24 hours for compound 37, diastereomer 2.
Liver samples were analyzed for the relevant nucleoside triphosphate by LC-MS/MS. […] Appropriate internal standard solution was added to the homogenate followed by neutralization with 20% ammonium hydroxide solution and addition of 500 μL 1% formic acid. The tissue samples were extracted by weak anion exchange solid phase extraction (SPE). Post extraction, the eluates were evaporated under nitrogen, followed by reconstitution before injection onto the LC-MS/MS system.

[2] = Stability in fresh whole blood; format: in vitro ADME; settings: human whole blood, 0.5 μM
Method: Stability of the test compounds was determined in fresh human whole blood with K2EDTA as the anticoagulant (stored refrigerated at 2-8° C. and used within 7 days of receipt). The experiment was conducted with three replicates for each time point. Whole blood, pre-incubated at 37° C. for 10-15 minutes, was fortified with a solution of test compound for a final concentration of 0.5 μM and mixed for 30 sec. At intervals (0, 0.5, 1 and 2 hr), three […] aliquots were combined with 200 μL (each) of an ice-cold solution of the internal standard (carbutamide 500 ng/mL in acetonitrile). The samples were vortexed for 30 sec and then centrifuged at 16100×g for 5 min. The supernatant was analyzed by LC-MS/MS. The MS peak area ratio of the test compound versus the internal standard was calculated and percent unchanged test compound was calculated for each time point using this ratio.

fresh human hepatocytes = assay: Release of active metabolite in fresh human hepatocytes; format: in vitro ADME; settings: 10 μM
Method: Plates of fresh human and mouse hepatocytes were obtained on ice. The medium was removed and replaced with hepatocyte culture medium (William's E supplemented with penicillin-streptomycin, 1% L-glutamine, 1% insulin-transferrin-selenium and 0.1 μM Dexamethasone (Invitrogen) or with Invitro GRO HI medium complemented with Torpedo antibiotics (Celsis)). Cells were left overnight in an incubator at 37° C. to acclimatize to culture and the medium.
Hepatocyte incubations were conducted at a final volume of 0.5 mL hepatocyte culture medium/well (0.8 million cells/well for human and 0.5 million cells/well for mouse; 12 well plate no overlay, collagen coat). Culture medium from overnight incubation of cells was removed and replaced with fresh medium, pre-warmed to 37° C., containing 10 μM of test compound from a stock solution in DMSO (final DMSO concentration was 0.1%). At each specific time point, incubation medium was removed and cell monolayers were carefully washed two times with ice-cold PBS. Following the last wash, all PBS was carefully removed and 1.0 mL of extraction solution (ice-cold 70% methanol/30% water) added. Cells were scraped off and suspended in the extraction solution, transferred to 2 mL polypropylene microfuge tubes and intracellular contents extracted overnight at −20° C.
After the overnight treatment the cellular extracts were prepared by centrifugation at 16,000×g for 10 min to remove cellular debris. The remaining sample was then dried using a refrigerated centrivap concentrator. Dry extracts were reconstituted in 1000 μL of HPLC-grade water and centrifuged at 16,000×g for 10 min. Aliquots (100 μL each) of the supernatant were transferred into a 96 well plate and internal standard (4 ng/mL final concentration) was added as the internal standard (IS) for LC-MS/MS analysis.
The incubation time points were 6, 24 and 48 hours for human hepatocytes and 1, 4, 8, 12 and 24 hours for mouse hepatocytes.

[3] = Plasma nucleoside pharmacokinetics after single oral dose in CD-1 mice; format: in vivo; settings: single oral dose 10 mg/kg in PEG 200;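 for Ms Plasma nucleoside AUC: pmol·h/mL plasma normalized to a 1 µmol/kg dose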
Method in brief: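 Mouse plasma was extracted by acetonitrile/0.2% formic acid protein precipitation using 2′-MeG-D3 or tiapride as internal standard. Nucleoside was quantified by positive-ion LC-MS/MS after C18 gradient separation. Calibration spanned 0.500 (LLOQ) to 200 ng/mL.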

[4] = Stability in simulated gastric fluid; format: in vitro ADME; settings: simulated gastric fluid with pepsin, 100 μM, 2 hours, 37° C.
Method: (§1) Stability in Simulated Gastric and Intestinal Fluids: Simulated gastric and intestinal fluids containing pepsin and pancreatin respectively were prepared according to the U.S. Pharmacopoeia USP291 procedure(www.pharmacopeia.cn/v29240/usp29nf24s0_ris1s126.html). Each test compound (final concentration 100 μM) was incubated in duplicate in the appropriate fluid for 2 hours at 37° C. The samples were quenched with […] cold acetonitrile, vortexed for 30 seconds and then centrifuged at 16100×g for 10 min. The supernatants were analyzed by HPLC on a C-18 column with UV detection at 252 nm. The time zero samples were prepared by adding SGF or SIF fluid to the quenching solvent followed by the test compound. Stability of the compound was determined by peak area of the test compound after incubation and calculated as percent of the peak area observed at time zero.

[5] = Stability in simulated intestinal fluid; format: in vitro ADME; settings: simulated intestinal fluid with pancreatin, 100 μM, 2 hours, 37° C.
Method: as §1

**Q.** With `CC(C)OC(=O)[C@H](C)NP(=O)(OC[C@H]1O[C@@H](n2ccc(=O)[nH]c2=O)[C@](C)(Cl)[C@@H]1O)Oc1ccccc1` (single isomer, unassigned) [Compound 40ii Diastereomer 2] as the compound, how does the “Nucleoside triphosphate in Liver C6” value [1] read?
**A.** ++++ (100 < ++++)

**Q.** What about the “WB_Human (37° C.; 2 hr) stability (percent remaining)” value [2] of the same compound?
**A.** ++++ (75% < ++++)

**Q.** What about the “FHH TP AUC” value (fresh human hepatocytes) of the same compound?
**A.** ++++ (1500 < ++++)

**Q.** What about the “FHH TP Cmax” value (fresh human hepatocytes) of the same compound?
**A.** ++++ (100 < ++++)

**Q.** And the “FHH TP (6 hr)” value (fresh human hepatocytes; 6 hr)?
**A.** ++++ (100 < ++++)

**Q.** What about the “FHH TP (24 hr)” value (fresh human hepatocytes; 24 hr) of the same compound?
**A.** +++ (50 < +++ ≤ 100)

**Q.** And the “FHH TP (48 hr)” value (fresh human hepatocytes; 48 hr)?
**A.** +++ (50 < +++ ≤ 100)

**Q.** What about the “Ms Plasma nucleoside AUC” value [3] of the same compound?
**A.** +++ (500 < +++ ≤ 1500)

**Q.** And the “Ms Plasma nucleoside Cmax” value [3]?
**A.** +++ (50 < +++ ≤ 100)

**Q.** And the “SGF stability (percent remaining)” value [4]?
**A.** ++++ (75% < ++++)

**Q.** And the “SIF stability (percent remaining)” value [5]?
**A.** + (+ ≤ 25%)
